# System: Metabolism protein genes
# Experiment: DNA chip mRNA expression in yeast, metabolism protein genes (Table 7)
# Assay type: cell-based, Saccharomyces cerevisiae S288C
# How it was run: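 Ratios compare mRNA levels in stressed and control S. cerevisiae. Each toxicant was applied for two hours to log-phase cultures at 25° C. at a sub-lethal, growth-inhibiting level; fluorescent cDNA (Cy3- or Cy5-dUTP) was hybridized to a genome-wide yeast chip for over 12 h at 65° C.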
smiles,measurement,setting,value
"O=[N+]([O-])c1cc[n+]([O-])c2ccccc12 [(5), 4-nitroquinolin-N-oxide]",The level of expressed mRNA in the presence of chemical substance/The level of expressed mRNA in the absence of chemical substance,yeast gene YAL012W,0.6
same,The level of expressed mRNA in the presence of chemical substance/The level of expressed mRNA in the absence of chemical substance,yeast gene YAL038W,1.4
same,The level of expressed mRNA in the presence of chemical substance/The level of expressed mRNA in the absence of chemical substance,yeast gene YAR071W,1.6
same,level of expressed mRNA in the presence/in the absence of chemical substance,yeast gene YBR003W,0.7
same,level of expressed mRNA in the presence/in the absence of chemical substance,yeast gene YBR011C,0.9
same,level of expressed mRNA in the presence/in the absence of chemical substance,yeast gene YBR020W,1.0
same,The level of expressed mRNA in the presence of chemical substance/The level of expressed mRNA in the absence of chemical substance,yeast gene YBR023C,0.8
same,The level of expressed mRNA in the presence of chemical substance/The level of expressed mRNA in the absence of chemical substance,yeast gene YBR029C,1.4
same,The level of expressed mRNA in the presence of chemical substance/The level of expressed mRNA in the absence of chemical substance,yeast gene YBR183W,0.9
same,The level of expressed mRNA in the presence of chemical substance/The level of expressed mRNA in the absence of chemical substance,yeast gene YBR222C,0.7
same,The level of expressed mRNA in the presence of chemical substance/The level of expressed mRNA in the absence of chemical substance,yeast gene YBR256C,1.6
same,The level of expressed mRNA in the presence of chemical substance/The level of expressed mRNA in the absence of chemical substance,yeast gene YBR299W,1.6
same,The level of expressed mRNA in the presence of chemical substance/The level of expressed mRNA in the absence of chemical substance,yeast gene YCL009C,0.7
same,The level of expressed mRNA in the presence of chemical substance/The level of expressed mRNA in the absence of chemical substance,yeast gene YCL064C,1.4
same,level of expressed mRNA in the presence/in the absence of chemical substance,yeast gene YCR010C,1.7
same,level of expressed mRNA in the presence/in the absence of chemical substance,yeast gene YCR034W,0.9
same,The level of expressed mRNA in the presence of chemical substance/The level of expressed mRNA in the absence of chemical substance,yeast gene YCR048W,0.9
same,The level of expressed mRNA in the presence of chemical substance/The level of expressed mRNA in the absence of chemical substance,yeast gene YCR098C,1.4
same,The level of expressed mRNA in the presence of chemical substance/The level of expressed mRNA in the absence of chemical substance,yeast gene YDR019C,0.9
same,level of expressed mRNA in the presence/in the absence of chemical substance,yeast gene YDR050C,0.9
same,level of expressed mRNA in the presence/in the absence of chemical substance,yeast gene YDR073W,1.2
same,level of expressed mRNA in the presence/in the absence of chemical substance,yeast gene YDR123C,1.6
same,level of expressed mRNA in the presence/in the absence of chemical substance,yeast gene YDR178W,0.9
same,level of expressed mRNA in the presence/in the absence of chemical substance,yeast gene YDR277C,0.8
same,level of expressed mRNA in the presence/in the absence of chemical substance,yeast gene YDR284C,0.8
same,level of expressed mRNA in the presence/in the absence of chemical substance,yeast gene YDR345C,1.3
same,The level of expressed mRNA in the presence of chemical substance/The level of expressed mRNA in the absence of chemical substance,yeast gene YDR380W,1.1
same,level of expressed mRNA in the presence/in the absence of chemical substance,yeast gene YDR400W,1.0
same,level of expressed mRNA in the presence/in the absence of chemical substance,yeast gene YDR408C,0.9
same,level of expressed mRNA in the presence/in the absence of chemical substance,yeast gene YDR483W,0.7
same,The level of expressed mRNA in the presence of chemical substance/The level of expressed mRNA in the absence of chemical substance,yeast gene YDR497C,0.7
same,The level of expressed mRNA in the presence of chemical substance/The level of expressed mRNA in the absence of chemical substance,yeast gene YDR502C,1.5
same,The level of expressed mRNA in the presence of chemical substance/The level of expressed mRNA in the absence of chemical substance,yeast gene YDR516C,1.3
same,level of expressed mRNA in the presence/in the absence of chemical substance,yeast gene YEL063C,1.2
same,level of expressed mRNA in the presence/in the absence of chemical substance,yeast gene YER015W,1.3
same,The level of expressed mRNA in the presence of chemical substance/The level of expressed mRNA in the absence of chemical substance,yeast gene YER026C,1.2
same,The level of expressed mRNA in the presence of chemical substance/The level of expressed mRNA in the absence of chemical substance,yeast gene YER053C,0.6
same,The level of expressed mRNA in the presence of chemical substance/The level of expressed mRNA in the absence of chemical substance,yeast gene YER069W,1.5
same,level of expressed mRNA in the presence/in the absence of chemical substance,yeast gene YER081W,1.1
same,The level of expressed mRNA in the presence of chemical substance/The level of expressed mRNA in the absence of chemical substance,yeast gene YER096W,1.3
same,level of expressed mRNA in the presence/in the absence of chemical substance,yeast gene YER120W,0.8
same,The level of expressed mRNA in the presence of chemical substance/The level of expressed mRNA in the absence of chemical substance,yeast gene YER178W,0.7
same,level of expressed mRNA in the presence/in the absence of chemical substance,yeast gene YFL011W,1.3
same,The level of expressed mRNA in the presence of chemical substance/The level of expressed mRNA in the absence of chemical substance,yeast gene YFL014W,1.0
same,The level of expressed mRNA in the presence of chemical substance/The level of expressed mRNA in the absence of chemical substance,yeast gene YFL030W,1.1
same,The level of expressed mRNA in the presence of chemical substance/The level of expressed mRNA in the absence of chemical substance,yeast gene YFL031W,1.0
same,The level of expressed mRNA in the presence of chemical substance/The level of expressed mRNA in the absence of chemical substance,yeast gene YFL056C,0.9
same,The level of expressed mRNA in the presence of chemical substance/The level of expressed mRNA in the absence of chemical substance,yeast gene YFL057C,0.9
same,The level of expressed mRNA in the presence of chemical substance/The level of expressed mRNA in the absence of chemical substance,yeast gene YFR047C,1.2
same,level of expressed mRNA in the presence/in the absence of chemical substance,yeast gene YGL012W,1.5
same,The level of expressed mRNA in the presence of chemical substance/The level of expressed mRNA in the absence of chemical substance,yeast gene YGL022W,1.0
same,level of expressed mRNA in the presence/in the absence of chemical substance,yeast gene YGL115W,1.2
same,The level of expressed mRNA in the presence of chemical substance/The level of expressed mRNA in the absence of chemical substance,yeast gene YGL126W,1.1
same,level of expressed mRNA in the presence/in the absence of chemical substance,yeast gene YGL205W,1.1
same,The level of expressed mRNA in the presence of chemical substance/The level of expressed mRNA in the absence of chemical substance,yeast gene YGL209W,0.7
same,The level of expressed mRNA in the presence of chemical substance/The level of expressed mRNA in the absence of chemical substance,yeast gene YGL248W,1.3
same,The level of expressed mRNA in the presence of chemical substance/The level of expressed mRNA in the absence of chemical substance,yeast gene YGR037C,1.0
same,The level of expressed mRNA in the presence of chemical substance/The level of expressed mRNA in the absence of chemical substance,yeast gene YGR055W,1.3
same,level of expressed mRNA in the presence/in the absence of chemical substance,yeast gene YGR096W,1.2
same,level of expressed mRNA in the presence/in the absence of chemical substance,yeast gene YGR191W,0.8
same,The level of expressed mRNA in the presence of chemical substance/The level of expressed mRNA in the absence of chemical substance,yeast gene YGR194C,0.8
same,level of expressed mRNA in the presence/in the absence of chemical substance,yeast gene YGR204W,0.6
same,The level of expressed mRNA in the presence of chemical substance/The level of expressed mRNA in the absence of chemical substance,yeast gene YGR256W,0.9
same,The level of expressed mRNA in the presence of chemical substance/The level of expressed mRNA in the absence of chemical substance,yeast gene YGR282C,1.0
same,level of expressed mRNA in the presence/in the absence of chemical substance,yeast gene YGR288W,0.8
same,level of expressed mRNA in the presence/in the absence of chemical substance,yeast gene YHR025W,0.9
same,The level of expressed mRNA in the presence of chemical substance/The level of expressed mRNA in the absence of chemical substance,yeast gene YHR111W,1.5
same,The level of expressed mRNA in the presence of chemical substance/The level of expressed mRNA in the absence of chemical substance,yeast gene YHR137W,1.0
same,The level of expressed mRNA in the presence of chemical substance/The level of expressed mRNA in the absence of chemical substance,yeast gene YHR174W,1.3
same,The level of expressed mRNA in the presence of chemical substance/The level of expressed mRNA in the absence of chemical substance,yeast gene YHR176W,1.0
same,level of expressed mRNA in the presence/in the absence of chemical substance,yeast gene YHR210C,1.8
same,level of expressed mRNA in the presence/in the absence of chemical substance,yeast gene YIL006W,0.8
same,The level of expressed mRNA in the presence of chemical substance/The level of expressed mRNA in the absence of chemical substance,yeast gene YIL045W,1.3
same,The level of expressed mRNA in the presence of chemical substance/The level of expressed mRNA in the absence of chemical substance,yeast gene YIL107C,0.8
same,The level of expressed mRNA in the presence of chemical substance/The level of expressed mRNA in the absence of chemical substance,yeast gene YIL154C,0.9
same,The level of expressed mRNA in the presence of chemical substance/The level of expressed mRNA in the absence of chemical substance,yeast gene YIL155C,1.3
same,The level of expressed mRNA in the presence of chemical substance/The level of expressed mRNA in the absence of chemical substance,yeast gene YIL167W,1.0
same,The level of expressed mRNA in the presence of chemical substance/The level of expressed mRNA in the absence of chemical substance,yeast gene YIR031C,1.6
same,The level of expressed mRNA in the presence of chemical substance/The level of expressed mRNA in the absence of chemical substance,yeast gene YIR034C,1.1
same,The level of expressed mRNA in the presence of chemical substance/The level of expressed mRNA in the absence of chemical substance,yeast gene YIR036C,0.9
same,The level of expressed mRNA in the presence of chemical substance/The level of expressed mRNA in the absence of chemical substance,yeast gene YJL031C,1.7
same,The level of expressed mRNA in the presence of chemical substance/The level of expressed mRNA in the absence of chemical substance,yeast gene YJL068C,0.7
same,The level of expressed mRNA in the presence of chemical substance/The level of expressed mRNA in the absence of chemical substance,yeast gene YJL088W,0.9
same,The level of expressed mRNA in the presence of chemical substance/The level of expressed mRNA in the absence of chemical substance,yeast gene YJL099W,1.9
same,level of expressed mRNA in the presence/in the absence of chemical substance,yeast gene YJL121C,1.0
same,level of expressed mRNA in the presence/in the absence of chemical substance,yeast gene YJL167W,0.7
same,The level of expressed mRNA in the presence of chemical substance/The level of expressed mRNA in the absence of chemical substance,yeast gene YJL172W,0.9
same,level of expressed mRNA in the presence/in the absence of chemical substance,yeast gene YJL216C,0.8
same,The level of expressed mRNA in the presence of chemical substance/The level of expressed mRNA in the absence of chemical substance,yeast gene YJL219W,1.2
same,level of expressed mRNA in the presence/in the absence of chemical substance,yeast gene YJR077C,0.9
same,The level of expressed mRNA in the presence of chemical substance/The level of expressed mRNA in the absence of chemical substance,yeast gene YJR137C,0.6
same,level of expressed mRNA in the presence/in the absence of chemical substance,yeast gene YJR143C,1.6
